Data reported in patent US9499614B2, “Methods for modulating protein glycosylation profiles of recombinant protein therapeutics using monosaccharides and oligosaccharides” (AbbVie, Inc., priority 2013, dated 2016).
Entries after “also recorded” stand apart in the source; their conditions may differ.

Legend:
Assay type in all cases: cell-based, Chinese Hamster
Cell Line 1 [1] = experiment: 3 L laboratory-scale bioreactor culture of Cell Line 1, cell culture performance; details: for Osmolality / cell viability / lactate / pCO2 / viable cell density: 50 mM supplement vs control; for final harvest titer ratio: relative to unsupplemented control
Description: (§1) Two recombinant Chinese Hamster Ovary (CHO) cell lines expressing two different humanized monoclonal antibodies (Antibody 1, Antibody 2) were evaluated in two different culture vessels (shaker flasks and laboratory scale bioreactors). Both cell lines were of CHO DUX-B11 origin based on a dhfr (dihydrofolate reductase) expression system. Both cell lines were cultured in the same chemically defined basal media (CDBM), with Cell Line 1 also utilizing a chemically-defined feed media (CDFM). Each of the respective media were supplemented with selected monosaccharides and oligosaccharides to evaluate their potential impact on the resulting N-glycan oligosaccharide profile. In preparing the cultures, the cell lines were serially expanded through separate seed train inoculums to generate enough cells for inoculation.
(§2) Viable cell density (VCD) and cell viability values were measured through trypan blue exclusion via Cedex automated cell counters (Roche Applied Science, Indianapolis, Ind.), glucose and lactate values were measured with a ABL-805 (Radiometer Medical, Denmark) blood gas analyzer. Offline pH, dissolved oxygen (DO), and pCO2 measurements were performed with a ABL-805 (Radiometer Medical, Denmark) blood gas analyzer. Osmolality was measured on a Multi-Osmette 2430 osmometer (Precision Systems, Natick, Mass.).
Antibody titers were measured from crude cell culture harvests on a Poros A™ (Life Technologies, Carlsbad, Calif.) affinity column using an Agilent (Santa Clara, Calif.) 1200 Series HPLC, or equivalent, operating with a low pH, step elution gradient with detection at 280 nm. Absolute concentrations were assigned with respect to reference standard calibration curves.
(§3) 3 L scale-down model bioreactors were utilized to verify the impact of select sugars on the resulting protein glycosylation profiles. The concentration of the sucrose and tagatose was chosen to minimize any potential adverse impact on cell growth and productivity, but still facilitate a measurable modulation of the glycosylation profile. Cell culture process performance indicators were monitored and measured throughout the respective cultures. Viable cell density, cell viability, lactate, pCO2, osmolality, harvest titer, and harvest N-glycan oligosaccharide data were measured and reported.
Two recombinant Chinese Hamster Ovary (CHO) cell lines expressing two different recombinant glycoproteins were evaluated in two different cultures vessels (shaker flasks and 3 L laboratory scale bioreactors). Cell Line 1 expressed Antibody 1, Cell Line 2 expressed Dual Variable Domain Immunoglobulin 1 (DVD 1) and Cell Line 3 expressed Antibody 2. Antibodies 1 and 2 are IgG1 proteins, and DVD 1 is an immunoglobulin with two variable domains as documented previously (Wu C. et al., (2007) Nat. Biotechnol 25(11):1290-1297). All cell lines were of CHO DUX-B11 origin based on a dhfr (dihydrofolate reductase) expression system. All cell lines were cultured in the same chemically defined basal media. Cell lines 1 and 2 were fed with the same chemically-defined feed media, but Cell Line 1 was fed media that was formulated at a 50% higher concentration. Each of the respective media were supplemented with either sucrose or tagatose to evaluate their potential impact on the resulting N-glycan oligosaccharide profile. All sugars were purchased from Sigma-Aldrich (St. Louis, Mo.). In preparation of the cultures, the cell lines were serially expanded through separate seed train inoculums to generate enough cells for inoculation.
as §2, with “performed with an ABL-805 (Radiometer” for “performed with a ABL-805 (Radiometer”, “gas analyzer. […]” for “gas analyzer. Osmolality was measured on a Multi-Osmette 2430 osmometer (Precision Systems, Natick, Mass.).”

Cell Line 1 [2] = experiment: N-glycan oligosaccharide profiling, Cell Line 1 shake flasks (Example 1)
Description: as §1
(§4) Purified antibodies subjected to additional analytical characterization were purified using MabSelect™ Protein A (GE Healthcare, Piscataway, N.J.) using a low pH, step elution gradient, followed by buffer exchange using Corning Lifesciences (Tewksbury, Mass.) Spin Concentrator X UF columns according to the manufacturers' recommended procedures.
(§5) Approximately 200 μg of Protein A purified samples from Cell Lines 1 and 2 were treated with N-glycanase at 37° C. overnight to remove the N-glycans from the protein. The protein was precipitated and the supernatant was taken for subsequent chemical derivatization of the reducing end of the released glycans with 2-aminobenzamide (2-AB) dye. Following the derivatization step, the excess label was removed using clean up cartridges and the samples were analyzed using normal phase HPLC with fluorescent detection. Mobile phase A was 100% acetonitrile and mobile phase B was 50 mM ammonium formate pH 4.4. The glycans were eluted from a polyamide column (Prozyme, Hayward, Calif.) using a shallow gradient. The labeled glycans were detected using a fluorescence detector with an excitation wavelength of 330 nm and an emission wavelength of 420 nm.
Cell Line 1 was cultured in shake flasks in fedbatch mode after an abbreviated seed train. Sucrose and tagatose were supplemented into chemically-defined basal and feed media at concentrations of 30, 50, and 70 mM, and compared to an unsupplemented control condition. The viable cell density (VCD), viability, and harvest titer results are shown in FIGS. 3A-3C and FIGS. 5A-5C for the sucrose, and tagatose conditions, respectively. Both sugars facilitated a slight decrease in VCD, with the higher concentrations also supporting the lowest peak VCD. […] As such, the upper threshold of sucrose or tagatose concentration should not be exceeded.

Cell Line 1 [3] = experiment: N-glycan oligosaccharide profiling, Cell Line 1 in 3 L laboratory-scale bioreactors; details: 50 mM supplement vs control
Description: as §4, §5, §3
3 L scale laboratory bioreactors were utilized to verify the impact of sucrose, tagatose, or fructose on protein glycosylation profiles. Concentrations of the sugars were chosen to minimize any potential adverse impacts on cell growth and productivity, but still facilitate a measurable impact on the glycoform profile. Cell culture process performance indicators were monitored and measured throughout the study. Viable cell density, cell viability, lactate, pCO2, osmolality, harvest titer, and harvest N-glycan oligosaccharide data was measured and reported.

[4] = 70 mM supplement, absolute % change vs control

SMILES | Osmolality (Cell Line 1 [1]) | cell viability (Cell Line 1 [1]) | lactate (Cell Line 1 [1]) | pCO2 (Cell Line 1 [1]) | viable cell density (Cell Line 1 [1]) | final harvest titer ratio (Cell Line 1 [1]; 50 mM supplement) | cumulative increase in overall mannosylated N-glycans (Cell Line 1 [2]; 70 mM supplement vs control) | decrease in NGA2F species (Cell Line 1 [2]; 70 mM supplement vs control) | overall decrease in fucosylation level (Cell Line 1 [2]; 70 mM supplement vs control) | increase in Man 5 species (Cell Line 1 [2]; [4]) | increase in Man 6 species (Cell Line 1 [2]; [4]) | increase in Man 7 species (Cell Line 1 [2]; [4]) | Man 5 increase (Cell Line 1 [3]) | Man 6 increase (Cell Line 1 [3]) | Man 7 increase (Cell Line 1 [3]) | decrease in NA1F (Cell Line 1 [3]) | decrease in NGA2F species (Cell Line 1 [3]) | increase in NA1F-GlcNAc (Cell Line 1 [3]) | increase in NGA2F-GlcNAc (Cell Line 1 [3]) | increase in overall mannosylation (Cell Line 1 [3]) | also measured
OC[C@H]1O[C@@](CO)(O[C@H]2O[C@H](CO)[C@@H](O)[C@H](O)[C@H]2O)[C@@H](O)[C@@H]1O [sucrose] | only slightly higher | no impact | only a nominal increase | no significant difference | no impact | 0.78 | 43% | 51% | 44% | 24% | 12% | 7% | 16% | 5% | 3% | 3% | 29% | 1% | 7% | 24% | increase in NGA2F-GlcNAc species (Cell Line 1 [2]; 70 mM supplement vs control): 7%; overall decrease in fucosylation (Cell Line 1 [3]): 24%
O=C(CO)[C@@H](O)[C@@H](O)[C@H](O)CO [tagatose] | higher; also recorded: only slightly higher | remained high throughout the culture | only a nominal increase | no significant difference | much more pronounced effect | 0.90 | 20% | 30% | 23% | ≤ 10% | 6% | 3% | 7% | 2% | 1% | 3% | 15% | 1% | 6% | 10% | peak VCD (Cell Line 1 [1]; 50 mM supplement): 8.5×10^6 cells/mL; increase in Man 8 species (Cell Line 1 [2]; [4]): 1%; overall decrease in fucosylation (Cell Line 1 [3]): 11%
